Reference: US20100069341A1, “TETRAHYDRO-PYRANOPYRAZOLE CANNABINOID MODULATORS” (priority 2005, published 2010)
pIC50: −log10 of the molar value. Where two headings read alike, the source gives them in different places.

What was measured:
[1] = biological target: T1, Cannabinoid CB2 Receptor (Homo sapiens, UniProt P34972); assay: Binding assay, cannabinoid CB2 receptor ([3H]-CP-55,940 displacement, SK-N-MC cell membranes); conditions: test concentration of 0.2 μM; human CB2 in SK-N-MC membranes; read-out: Cannabinoid CB2 Receptor Binding, percent inhibition
T1 construct: expressed in transfected cells; semi-purified membrane pellet
T1 sequence (P34972 whole entry): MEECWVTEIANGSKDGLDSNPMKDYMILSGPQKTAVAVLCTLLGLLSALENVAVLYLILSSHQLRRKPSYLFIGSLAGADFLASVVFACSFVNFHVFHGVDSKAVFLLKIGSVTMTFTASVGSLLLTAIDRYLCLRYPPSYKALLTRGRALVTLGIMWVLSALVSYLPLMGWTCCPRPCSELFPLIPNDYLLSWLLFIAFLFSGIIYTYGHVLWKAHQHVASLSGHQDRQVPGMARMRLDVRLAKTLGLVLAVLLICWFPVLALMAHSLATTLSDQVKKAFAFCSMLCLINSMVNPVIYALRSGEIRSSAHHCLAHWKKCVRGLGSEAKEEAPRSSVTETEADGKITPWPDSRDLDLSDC
Procedure: (§1) Binding Assay for CB1 or CB2 Agonists or Inverse Agonists
(§2) The human CB1 and CB2 receptors were stably expressed in SK-N-MC cells transfected with pcDNA3 CB-1 (human) or pcDNA3 CB-2 (human). The cells were grown in T-180 cell culture flasks under standard cell culture conditions at 37° C. in a 5% CO2 atmosphere. The cells were harvested by trysinization and homogenized in a homogenization buffer (10 mM Tris, 0.2 mM MgCl2, 5 mM KCl, with protease inhibitors aprotinin, leupeptin, pepstatin A and bacitracin) and centrifuged (2000 g). The supernatant was then centrifuged in 2M sucrose (31,300 g) to produce a semi-purified membrane pellet. The pellet was resuspended in homogenization and store at −80° C.
(§3) On the day of the assay, the pellet was thawed on ice and diluted in assay buffer (50 mM Tris-HCl, 5 mM MgCl2, 2.5 mM EDTA, 0.5 mg/mL fatty acid free bovine serum albumin, pH 7.5). The diluted membrane was added with buffer, test compound or standard and the radioligand [H]^3+-CP-55,940 (0.2 nM) to the wells of a 96-well polypropylene plate. Non-specific binding was measured in wells containing 10 uM WIN 55,212. The plate was covered and incubated for 90 minutes at 30° C. The contents were then aspirated onto a Packard Unifilter GF/C filter bottom plate prewet with 0.5% polyethyleneimine. The wells of the polypropylene plate were rinsed and aspirated seven times with a 0.9% saline-0.5% Tween 20 solution. The Unifilter plate was dried, a scintillation cocktail was added to each well and the counts representing binding were quantitated in a TopCount scintillation counter.
For compounds tested, an IC50 binding value was obtained from percent inhibition studies in which various test concentrations were used. The binding value (in μM) was calculated by linear regression. For compounds without an IC50 binding value, the percent inhibition (in %) was obtained at a test concentration of 0.2 μM.

[2] = biological target: T2, Cannabinoid CB1 Receptor (Homo sapiens, UniProt P21554); assay: Binding assay, cannabinoid CB1 receptor ([3H]-CP-55,940 displacement, SK-N-MC cell membranes); conditions: for inhibition at 0.2 µM: read-out: Cannabinoid CB1 Receptor Binding, percent inhibition
T2 construct: expressed in transfected cells; semi-purified membrane pellet
T2 sequence (P21554 whole entry): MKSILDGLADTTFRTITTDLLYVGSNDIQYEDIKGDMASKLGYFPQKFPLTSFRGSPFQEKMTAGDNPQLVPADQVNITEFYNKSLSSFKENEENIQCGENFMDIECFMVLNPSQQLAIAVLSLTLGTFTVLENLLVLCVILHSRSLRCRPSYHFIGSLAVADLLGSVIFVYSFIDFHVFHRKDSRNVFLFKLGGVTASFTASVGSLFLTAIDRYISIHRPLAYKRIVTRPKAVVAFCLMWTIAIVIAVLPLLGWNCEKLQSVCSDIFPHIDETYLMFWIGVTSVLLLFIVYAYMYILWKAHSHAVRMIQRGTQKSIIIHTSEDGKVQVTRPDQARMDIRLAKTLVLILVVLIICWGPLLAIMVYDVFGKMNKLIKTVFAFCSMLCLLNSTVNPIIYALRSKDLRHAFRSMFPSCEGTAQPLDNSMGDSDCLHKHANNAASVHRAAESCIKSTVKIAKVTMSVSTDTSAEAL
Procedure: as §1, §2
as §3, with “The diluted membrane was added with buffer, test compound or standard and the radioligand [H]^3+-CP-55,940 (0.2 nM) to the wells of a 96-well polypropylene plate. Non-specific binding was measured in wells containing 10 uM WIN 55,212.” left out
For compounds tested, an IC50 binding value was obtained from percent inhibition studies in which various test concentrations were used. The binding value (in μM) was calculated by linear regression.

[3] = test concentration of 0.2 μM, human CB1 in SK-N-MC membranes

| Compound | inhibition at 0.2 µM [1] [%] | inhibition at 0.2 µM [2, 3] [%] | pIC50 [2] | inhibition at 0.2 µM [2] [%] |
| --- | --- | --- | --- | --- |
| O=C(c1nn(-c2ccc(Cl)cc2Cl)c2c1COC/C2=C\c1ccc(F)cc1)N1CCC[C@H]1CO [Cpd 21, (7Z)-[1-(2,4-dichloro-phenyl)-7-(4-fluoro-benzylidene)-1,4,6,7-tetrahydro-pyrano[4,3-c]pyrazol-3-yl]-[(2S)-2-hydroxymethyl-pyrrolidin-1-yl]-methanone] | 15 | 59 |  |  |
| O=C(NN1CC2CCCC2C1)c1nn(-c2ccc(Cl)cc2Cl)c2c1COCC2Cc1ccc(F)cc1 (centres unmarked) [Cpd 22, 1-(2,4-dichloro-phenyl)-7-(4-fluoro-benzyl)-1,4,6,7-tetrahydro-pyrano[4,3-c]pyrazole-3-carboxylic acid (hexahydro-cyclopenta[c]pyrrol-2-yl)-amide] | 18 | 66 |  |  |
| O=C(NN1CCCCC1)c1nn(-c2ccc(Cl)cc2Cl)c2c1COCC2Cc1ccc(F)cc1 (centres unmarked) [Cpd 23, 1-(2,4-dichloro-phenyl)-7-(4-fluoro-benzyl)-1,4,6,7-tetrahydro-pyrano[4,3-c]pyrazole-3-carboxylic acid piperidin-1-ylamide] | 19 | 59 |  |  |
| C[C@@H](NC(=O)c1nn(-c2ccc(Cl)cc2Cl)c2c1COCC2Cc1ccc(F)cc1)c1ccccc1 (stereo partly drawn) [Cpd 24, 1-(2,4-dichloro-phenyl)-7-(4-fluoro-benzyl)-1,4,6,7-tetrahydro-pyrano[4,3-c]pyrazole-3-carboxylic acid [(R)-1-phenyl-ethyl]-amide] | 13 | 66 |  |  |
| CN1CCN(NC(=O)c2nn(-c3ccc(Cl)cc3Cl)c3c2COCC3Cc2ccc(F)cc2)CC1 (centres unmarked) [Cpd 26, 1-(2,4-dichloro-phenyl)-7-(4-fluoro-benzyl)-1,4,6,7-tetrahydro-pyrano[4,3-c]pyrazole-3-carboxylic acid (4-methyl-piperazin-1-yl)-amide] | 13 | 8 |  |  |
| CC1CCCC(C)N1NC(=O)c1nn(-c2ccc(Cl)cc2Cl)c2c1COC/C2=C\c1ccc(F)cc1 (centres unmarked) [Cpd 27, (7Z)-1-(2,4-dichloro-phenyl)-7-(4-fluoro-benzylidene)-1,4,6,7-tetrahydro-pyrano[4,3-c]pyrazole-3-carboxylic acid (2,6-dimethyl-piperidin-1-yl)-amide] | 20 | 77 | 7.40 |  |
| O=C(NNC1CCCCC1)c1nn(-c2ccc(Cl)cc2Cl)c2c1COC/C2=C\c1ccc(F)cc1 [Cpd 29, (7Z)-1-(2,4-dichloro-phenyl)-7-(4-fluoro-benzylidene)-1,4,6,7-tetrahydro-pyrano[4,3-c]pyrazole-3-carboxylic acid N′-cyclohexyl-hydrazide] | 0 | 52 |  |  |
| CN1CCN(NC(=O)c2nn(-c3ccc(Cl)cc3Cl)c3c2COC/C3=C\c2ccc(F)cc2)CC1 [Cpd 30, (7Z)-1-(2,4-dichloro-phenyl)-7-(4-fluoro-benzylidene)-1,4,6,7-tetrahydro-pyrano[4,3-c]pyrazole-3-carboxylic acid (4-methyl-piperazin-1-yl)-amide] | 0 | 3 |  |  |
| O=C(NN1CCN(CCO)CC1)c1nn(-c2ccc(Cl)cc2Cl)c2c1COC/C2=C\c1ccc(F)cc1 [Cpd 31, (7Z)-1-(2,4-dichloro-phenyl)-7-(4-fluoro-benzylidene)-1,4,6,7-tetrahydro-pyrano[4,3-c]pyrazole-3-carboxylic acid [4-(2-hydroxy-ethyl)-piperazin-1-yl]-amide] | 15 | 10 |  |  |
| C[C@@H](NC(=O)c1nn(-c2ccc(Cl)cc2Cl)c2c1COC/C2=C\c1cccs1)c1ccccc1 [Cpd 32, (7Z)-1-(2,4-dichloro-phenyl)-7-thiophen-2-ylmethylene-1,4,6,7-tetrahydro-pyrano[4,3-c]pyrazole-3-carboxylic acid [(R)-1-phenyl-ethyl]-amide] | 11 | 76 | 7.70 |  |
| C[C@@H](NC(=O)c1nn(-c2ccc(Cl)cc2Cl)c2c1COC/C2=C\c1cccs1)C1CCCCC1 [Cpd 33, (7Z)-1-(2,4-dichloro-phenyl)-7-thiophen-2-ylmethylene-1,4,6,7-tetrahydro-pyrano[4,3-c]pyrazole-3-carboxylic acid [(R)-1-cyclohexyl-ethyl]-amide] | 15 | 88 | 8.00 |  |
| O=C(NN1CCCC1)c1nn(-c2ccc(Cl)cc2Cl)c2c1COC/C2=C\c1cccs1 [Cpd 34, (7Z)-1-(2,4-dichloro-phenyl)-7-thiophen-2-ylmethylene-1,4,6,7-tetrahydro-pyrano[4,3-c]pyrazole-3-carboxylic acid pyrrolidin-1-ylamide] | 7 | 54 |  |  |
| O=C(NN1CCCCC1)c1nn(-c2ccc(Cl)cc2Cl)c2c1COC/C2=C\c1cccs1 [Cpd 35, (7Z)-1-(2,4-dichloro-phenyl)-7-thiophen-2-ylmethylene-1,4,6,7-tetrahydro-pyrano[4,3-c]pyrazole-3-carboxylic acid piperidin-1-ylamide] | 12 | 68 |  |  |
| O=C(NN1CCCCCC1)c1nn(-c2ccc(Cl)cc2Cl)c2c1COC/C2=C\c1cccs1 [Cpd 36, (7Z)-1-(2,4-dichloro-phenyl)-7-thiophen-2-ylmethylene-1,4,6,7-tetrahydro-pyrano[4,3-c]pyrazole-3-carboxylic acid azepan-1-ylamide] | 16 | 84 | 7.70 |  |
| CC1CCCC(C)N1NC(=O)c1nn(-c2ccc(Cl)cc2Cl)c2c1COC/C2=C\c1cccs1 (centres unmarked) [Cpd 37, (7Z)-1-(2,4-dichloro-phenyl)-7-thiophen-2-ylmethylene-1,4,6,7-tetrahydro-pyrano[4,3-c]pyrazole-3-carboxylic acid (2,6-dimethyl-piperidin-1-yl)-amide] | 20 | 61 |  |  |
| O=C(NN1CC2CCCC2C1)c1nn(-c2ccc(Cl)cc2Cl)c2c1COC/C2=C\c1cccs1 (centres unmarked) [Cpd 38, (7Z)-1-(2,4-dichloro-phenyl)-7-thiophen-2-ylmethylene-1,4,6,7-tetrahydro-pyrano[4,3-c]pyrazole-3-carboxylic acid (hexahydro-cyclopenta[c]pyrrol-2-yl)-amide] | 16 | 79 | 7.52 |  |
| C[C@@H](NC(=O)c1nn(-c2ccc(Cl)cc2Cl)c2c1COC/C2=C\c1ccsc1)C1CCCCC1 [Cpd 39, (7Z)-1-(2,4-dichloro-phenyl)-7-thiophen-3-ylmethylene-1,4,6,7-tetrahydro-pyrano[4,3-c]pyrazole-3-carboxylic acid [(R)-1-cyclohexyl-ethyl]-amide] | 13 |  | 7.70 | 84 |
| C[C@@H](NC(=O)c1nn(-c2ccc(Cl)cc2Cl)c2c1COC/C2=C\c1ccsc1)c1ccccc1 [Cpd 40, (7Z)-1-(2,4-dichloro-phenyl)-7-thiophen-3-ylmethylene-1,4,6,7-tetrahydro-pyrano[4,3-c]pyrazole-3-carboxylic acid [(R)-1-phenyl-ethyl]-amide] | 21 |  | 8.00 | 84 |
| C[C@H](NC(=O)c1nn(-c2ccc(Cl)cc2Cl)c2c1COC/C2=C\c1ccsc1)C1CCCCC1 [Cpd 41, (7Z)-1-(2,4-dichloro-phenyl)-7-thiophen-3-ylmethylene-1,4,6,7-tetrahydro-pyrano[4,3-c]pyrazole-3-carboxylic acid [(S)-1-cyclohexyl-ethyl]-amide] | 21 |  |  | 56 |
| C[C@H](NC(=O)c1nn(-c2ccc(Cl)cc2Cl)c2c1COC/C2=C\c1ccsc1)c1ccccc1 [Cpd 42, (7Z)-1-(2,4-dichloro-phenyl)-7-thiophen-3-ylmethylene-1,4,6,7-tetrahydro-pyrano[4,3-c]pyrazole-3-carboxylic acid [(S)-1-phenyl-ethyl]-amide] | 16 |  |  | 57 |
